Source: patent US10640767B2, “Assay for exo-site binding molecules” (President and Fellows of Harvard College, priority 2016, dated 2020)

Target: T1, Recombinant His6-tagged IDE (Homo sapiens, UniProt P14735)
T1 construct: made in house; host or cells: E. coli Rosetta 2 (DE3) pLysS, plasmid pTrcHis-A
T1 sequence (P14735 42-1019): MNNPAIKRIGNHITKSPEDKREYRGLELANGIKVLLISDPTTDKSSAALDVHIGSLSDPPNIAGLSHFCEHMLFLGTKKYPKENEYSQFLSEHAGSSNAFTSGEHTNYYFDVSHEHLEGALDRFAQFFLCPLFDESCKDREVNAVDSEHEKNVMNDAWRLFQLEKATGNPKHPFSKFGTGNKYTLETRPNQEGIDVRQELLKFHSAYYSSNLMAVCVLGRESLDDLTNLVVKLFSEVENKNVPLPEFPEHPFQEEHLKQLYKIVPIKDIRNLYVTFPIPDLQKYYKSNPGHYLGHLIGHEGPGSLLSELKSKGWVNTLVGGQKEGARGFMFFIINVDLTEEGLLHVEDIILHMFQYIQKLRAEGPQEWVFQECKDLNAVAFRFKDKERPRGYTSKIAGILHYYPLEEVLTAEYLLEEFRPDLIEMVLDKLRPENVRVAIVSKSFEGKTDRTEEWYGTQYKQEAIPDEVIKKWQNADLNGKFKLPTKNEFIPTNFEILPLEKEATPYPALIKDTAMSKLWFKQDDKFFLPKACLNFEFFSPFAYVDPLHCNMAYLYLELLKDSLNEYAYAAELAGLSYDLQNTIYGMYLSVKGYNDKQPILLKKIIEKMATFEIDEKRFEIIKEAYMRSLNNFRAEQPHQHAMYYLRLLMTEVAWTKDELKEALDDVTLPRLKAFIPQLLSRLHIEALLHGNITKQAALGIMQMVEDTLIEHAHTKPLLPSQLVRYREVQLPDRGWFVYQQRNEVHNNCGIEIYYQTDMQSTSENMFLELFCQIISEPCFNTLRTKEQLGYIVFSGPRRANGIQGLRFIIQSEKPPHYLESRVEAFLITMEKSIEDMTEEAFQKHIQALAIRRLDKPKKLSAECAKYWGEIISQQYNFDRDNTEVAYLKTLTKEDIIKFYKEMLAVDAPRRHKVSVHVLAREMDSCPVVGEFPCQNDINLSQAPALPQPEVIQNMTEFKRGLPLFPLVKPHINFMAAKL
Test: IDE protease activity assay with fluorogenic peptide substrate Mca-RPPGFSAFK(Dnp)-OH
Format: biochemical
Settings: inhibitor 20 μM final; purified recombinant His6-tagged IDE proteins
Protocol: Recombinant His6-tagged IDE and IDE-A479L were purified by Ni(II)-affinity chromatography (IMAC sepharose beads, GE Healthcare®) according to the manufacturer's instructions. The cell pellets were resuspended in pH 8.0 buffer containing 50 mM phosphate, 300 mM NaCl, 10 mM imidazole, 1% Triton X-100 and 1 mM tris(2-carboxyethyl)phosphine hydrochloride (TCEP), and were lysed by probe sonication for 4 min at <4° C., followed by clearing of cell debris by centrifugation at 10,000 g for 25 min at 4° C. The supernatant was incubated with Ni(II)-doped IMAC resin (2 mL) for 3 h at 4° C. The resin was washed twice with the cell resuspension/lysis buffer, and three times with pH 8.0 buffer containing 50 mM phosphate, 300 mM NaCl, 50 mM imidazole and 1 mM TCEP. Elution was performed in 2 mL aliquots by raising the imidazole concentration to 250 mM and subsequently to 500 mM in the previous buffer. The fractions were combined and the buffer was exchanged to the recommended IDE buffer (R&D) using spin columns with 100 KDa molecular weight cut off membranes (Millipore). Protein yields were typically ˜10 μg/L, and >90% purity based on gel electrophoresis analysis (Coomassie stained).

SMILES: NCCCC[C@@H]1NC(=O)/C=C/C(=O)N[C@H](C(N)=O)CCCCNC(=O)[C@@H](Cc2ccc(C(=O)c3ccccc3)cc2)NC(=O)[C@H](CC2CCCCC2)NC1=O [6bK]
- IDE-specific protease activity as assessed by inhibition of degradation of peptide substrate Mca-RPPGFSAFK(Dnp)-OH: > 95%
